# US9796704B2, “Substituted quinazolines as receptor-type kinase inhibitors” (Symphony Evolution, Inc., priority 2002, dated 2017)
# Experiments:
# EphB4 = EphB4 (Homo sapiens (Human), UniProt P54760); assay: EphB4 kinase inhibition, 33P phosphoryl transfer assay (radiometric); format: biochemical
# Method: Phosphorylated substrate products are quantified by scintillation spectrometry.
# Kinase activity and compound inhibition are investigated using one or more of the three assay formats described below. The ATP concentrations are selected near its Michaelis-Menten constant (KM) for each individual kinase. Dose-response experiments are performed at ten different inhibitor concentrations in a 384-well plate format. […] These parameters are obtained by nonlinear regression algorithm built into ActivityBase software (available from ID Business Solutions Ltd., of Guildford, Surrey, UK). ^33P Phosphoryl Transfer Assay (Radiometric)
# Greiner 384-well white clear bottom high binding plates (available from Greiner Bio-One, Inc., of Longwood, Fla.) are coated with 2 μg/well of protein or peptide substrate in a 50 μL volume overnight at ambient temperature. […] The coating solution is aspirated and the plates are washed once with 50 μL of assay buffer and padded dry. Subsequently compounds and enzymes are mixed with γ ^33P-ATP (3.3 μCi/nmol) in a total volume of 20 uL in suitable assay buffers (see Table 2). For example the final EphB4 reaction solution contains 20 mM TrisHCl, pH 7.5, 10 mM MgCl2, 0.01% Triton X-100, 0.1 mM NaVO3, 5 nM EphB4 enzyme and 5 μM ATP. […] The plates are subsequently washed 6-12 times with PBST or TBS buffer.
# EGFR = EGFR (Homo sapiens (Human), UniProt P00533); assay: EGFR kinase inhibition, luciferase-coupled chemiluminescent assay (LCCA); settings: read-out: EGFR IC50
# EGFR, sequence (P00533 672-1210): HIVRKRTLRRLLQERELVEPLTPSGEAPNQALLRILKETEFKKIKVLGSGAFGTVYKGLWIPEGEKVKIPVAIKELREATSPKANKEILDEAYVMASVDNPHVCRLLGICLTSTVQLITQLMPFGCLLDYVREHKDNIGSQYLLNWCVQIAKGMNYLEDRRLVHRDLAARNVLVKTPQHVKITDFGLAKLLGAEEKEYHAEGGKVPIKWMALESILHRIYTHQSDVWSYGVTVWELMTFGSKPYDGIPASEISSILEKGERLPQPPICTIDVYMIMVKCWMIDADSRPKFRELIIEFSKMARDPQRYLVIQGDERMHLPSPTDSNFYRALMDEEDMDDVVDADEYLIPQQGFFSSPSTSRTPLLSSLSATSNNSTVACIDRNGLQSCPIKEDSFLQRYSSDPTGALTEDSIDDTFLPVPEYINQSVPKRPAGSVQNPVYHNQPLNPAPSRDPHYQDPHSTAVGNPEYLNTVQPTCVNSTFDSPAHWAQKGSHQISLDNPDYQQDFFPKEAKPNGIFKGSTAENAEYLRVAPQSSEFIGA
# EphA2 = EphA2 (Homo sapiens (Human), UniProt P29317); assay: EphA2 kinase inhibition, luciferase-coupled chemiluminescent assay (LCCA); settings: read-out: EphA2 IC50
# EphA2, sequence (P29317 598-890): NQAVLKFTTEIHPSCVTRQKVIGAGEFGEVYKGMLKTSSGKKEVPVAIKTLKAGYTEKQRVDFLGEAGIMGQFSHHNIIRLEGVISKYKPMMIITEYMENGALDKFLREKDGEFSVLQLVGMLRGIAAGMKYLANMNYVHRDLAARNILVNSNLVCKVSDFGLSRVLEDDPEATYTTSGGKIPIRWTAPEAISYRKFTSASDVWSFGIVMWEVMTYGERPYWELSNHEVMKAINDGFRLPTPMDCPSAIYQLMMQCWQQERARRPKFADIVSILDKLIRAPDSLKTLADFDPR
# EphB4, sequence (P54760 605-890): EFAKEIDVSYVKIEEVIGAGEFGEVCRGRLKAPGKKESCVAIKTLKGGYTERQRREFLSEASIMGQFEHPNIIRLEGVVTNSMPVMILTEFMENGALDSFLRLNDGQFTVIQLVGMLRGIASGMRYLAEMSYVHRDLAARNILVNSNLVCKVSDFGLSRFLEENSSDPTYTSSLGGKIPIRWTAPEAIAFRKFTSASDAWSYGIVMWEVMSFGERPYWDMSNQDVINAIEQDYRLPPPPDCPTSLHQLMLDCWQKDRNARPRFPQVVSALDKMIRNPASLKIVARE
SMILES,IC50 (EphB4),IC50 (EGFR),IC50 (EphA2)
"COc1cc2c(Nc3ccc(Cl)c(Cl)c3)ncnc2cc1OC1CCCC1 [Example 184, 7-(cyclopentyloxy)-N-(3,4-dichlorophenyl)-6-(methyloxy)quinazolin-4-amine]",50 to 1000 nM,< 50 nM,1000 to 20000 nM
"COc1cc2c(Nc3ccc(Cl)c(Cl)c3)ncnc2cc1OCCC1CCCCC1 [Example 185, 7-[(2-cyclohexylethyl)oxy]-N-(3,4-dichlorophenyl)-6-(methyloxy)quinazolin-4-amine]",50 to 1000 nM,< 50 nM,50 to 1000 nM
"COc1cc2c(Nc3ccc(Cl)c(Cl)c3)ncnc2cc1OCC1CCCCC1 [Example 186, 7-[(cyclohexylmethyl)oxy]-N-(3,4-dichlorophenyl)-6-(methyloxy)quinazolin-4-amine]",< 50 nM,< 50 nM,50 to 1000 nM
"COc1cc2c(Nc3ccc(Cl)c(Cl)c3)ncnc2cc1OCCC1OCCO1 [Example 188, N-(3,4-dichlorophenyl)-7-{[2-(1,3-dioxolan-2-yl)ethyl]oxy}-6-(methyloxy)quinazolin-4-amine]",50 to 1000 nM,< 50 nM,50 to 1000 nM
"COc1cc2c(Nc3ccc(Cl)c(Cl)c3)ncnc2cc1OCCC1OCCCO1 [Example 189, N-(3,4-dichlorophenyl)-7-{[2-(1,3-dioxan-2-yl)ethyl]oxy}-6-(methyloxy)quinazolin-4-amine]",50 to 1000 nM,< 50 nM,50 to 1000 nM
"COc1cc2c(Nc3ccc(Cl)c(Cl)c3)ncnc2cc1OCCN1CCOCC1 [Example 190, N-(3,4-dichlorophenyl)-6-(methyloxy)-7-[(2-morpholin-4-ylethyl)oxy]quinazolin-4-amine]",50 to 1000 nM,< 50 nM,50 to 1000 nM
"COc1cc2c(Nc3ccc(Cl)c(Cl)c3)ncnc2cc1OCCN1CCCC1 [Example 191, N-(3,4-dichlorophenyl)-6-(methyloxy)-7-[(2-pyrrolidin-1-ylethyl)oxy]quinazolin-4-amine]",50 to 1000 nM,< 50 nM,50 to 1000 nM
"COc1cc2c(Nc3ccc(Cl)c(Cl)c3)ncnc2cc1OCCN1CCCCC1 [Example 192, N-(3,4-dichlorophenyl)-6-(methyloxy)-7-[(2-piperidin-1-ylethyl)oxy]quinazolin-4-amine]",50 to 1000 nM,< 50 nM,1000 to 20000 nM
"COc1cc2c(Nc3ccc(Cl)c(Cl)c3)ncnc2cc1OCC(=O)N1CCOCC1 [Example 195, N-(3,4-dichlorophenyl)-6-(methyloxy)-7-[(2-morpholin-4-yl-2-oxoethyl)oxy]quinazolin-4-amine]",50 to 1000 nM,< 50 nM,50 to 1000 nM
"COc1cc2c(Nc3ccc(Cl)c(Cl)c3)ncnc2cc1OCc1nc(-c2ccc(O)c(C(N)=O)c2)cs1 [Example 200, 5-[2-({[4-[(3,4-dichlorophenyl)amino]-6-(methyloxy)quinazolin-7-yl]oxy}methyl)-1,3-thiazol-4-yl]-2-hydroxybenzamide]",50 to 1000 nM,< 50 nM,50 to 1000 nM
"COc1cc2c(Nc3ccc(Cl)c(Cl)c3)ncnc2cc1OCc1nc(-c2cccnc2)cs1 [Example 201, N-(3,4-dichlorophenyl)-6-(methyloxy)-7-{[(4-pyridin-3-yl-1,3-thiazol-2-yl)methyl]oxy}quinazolin-4-amine]",50 to 1000 nM,< 50 nM,50 to 1000 nM
"COc1cc2c(Nc3ccc(Cl)c(Cl)c3)ncnc2cc1OCc1nc(N2CCOCC2)no1 [Example 205, N-(3,4-dichlorophenyl)-6-(methyloxy)-7-{[(3-morpholin-4-yl-1,2,4-oxadiazol-5-yl)methyl]oxy}quinazolin-4-amine]",< 50 nM,< 50 nM,50 to 1000 nM
"COc1cc2c(Nc3ccc(Cl)c(Cl)c3)ncnc2cc1OCc1nc(N(C)C)no1 [Example 206, N-(3,4-dichlorophenyl)-7-({[3-(dimethylamino)-1,2,4-oxadiazol-5-yl]methyl}oxy)-6-(methyloxy)quinazolin-4-amine]",50 to 1000 nM,< 50 nM,50 to 1000 nM
"COc1cc2c(Nc3ccc(Cl)c(Cl)c3)ncnc2cc1OCc1nc2c(s1)CNCC2 [Example 208, N-(3,4-dichlorophenyl)-6-(methyloxy)-7-[(4,5,6,7-tetrahydro[1,3]thiazolo[5,4-c]pyridin-2-ylmethyl)oxy]quinazolin-4-amine]",50 to 1000 nM,< 50 nM,50 to 1000 nM
"COc1cc2c(Nc3ccc(Cl)c(Cl)c3)ncnc2cc1OCc1nc(CN2CCOCC2)cs1 [Example 209, N-(3,4-dichlorophenyl)-6-(methyloxy)-7-({[4-(morpholin-4-ylmethyl)-1,3-thiazol-2-yl]methyl}oxy)quinazolin-4-amine]",< 50 nM,< 50 nM,50 to 1000 nM
"CCN1CCOC(COc2cc3ncnc(Nc4ccc(Cl)c(Cl)c4)c3cc2OC)C1 (stereo not drawn) [Example 212, N-(3,4-dichlorophenyl)-7-{[(4-ethylmorpholin-2-yl)methyl]oxy}-6-(methyloxy)quinazolin-4-amine]",50 to 1000 nM,< 50 nM,50 to 1000 nM
"COc1cc2c(Nc3ccc(Cl)c(Cl)c3)ncnc2cc1OCc1csc(C2CCNCC2)n1 [Example 213, N-(3,4-dichlorophenyl)-6-(methyloxy)-7-{[(2-piperidin-4-yl-1,3-thiazol-4-yl)methyl]oxy}quinazolin-4-amine]",< 50 nM,< 50 nM,50 to 1000 nM
"COc1cc2c(Nc3ccc(Cl)c(Cl)c3)ncnc2cc1OCc1csc(C2CCN(C)CC2)n1 [Example 214, N-(3,4-dichlorophenyl)-6-(methyloxy)-7-({[2-(1-methylpiperidin-4-yl)-1,3-thiazol-4-yl]methyl}oxy)quinazolin-4-amine]",< 50 nM,< 50 nM,50 to 1000 nM

# Now from value to compound:
IC50 (EphB4),IC50 (EGFR),IC50 (EphA2),SMILES
50 to 1000 nM,< 50 nM,50 to 1000 nM,"CCN1CCCCC1c1nc(COc2cc3ncnc(Nc4ccc(Cl)c(Cl)c4)c3cc2OC)no1 (stereo not drawn) [Example 219, N-(3,4-dichlorophenyl)-7-({[5-(1-ethylpiperidin-2-yl)-1,2,4-oxadiazol-3-yl]methyl}oxy)-6-(methyloxy)quinazolin-4-amine]"
50 to 1000 nM,< 50 nM,50 to 1000 nM,"CCN1CCN(c2noc(COc3cc4ncnc(Nc5ccc(Cl)c(Cl)c5)c4cc3OC)n2)CC1 [Example 220, N-(3,4-dichlorophenyl)-7-({[3-(4-ethylpiperazin-1-yl)-1,2,4-oxadiazol-5-yl]methyl}oxy)-6-(methyloxy)quinazolin-4-amine]"
50 to 1000 nM,< 50 nM,50 to 1000 nM,"COc1cc2c(Nc3ccc(Cl)c(Cl)c3)ncnc2cc1OCc1csc(-c2ccc(Cl)cc2)n1 [Example 223, 7-({[2-(4-chlorophenyl)-1,3-thiazol-4-yl]methyl}oxy)-N-(3,4-dichlorophenyl)-6-(methyloxy)quinazolin-4-amine]"
50 to 1000 nM,< 50 nM,50 to 1000 nM,"COc1cc2c(Nc3ccc(Cl)c(Cl)c3)ncnc2cc1OCc1noc(-c2c(C)noc2C)n1 [Example 224, N-(3,4-dichlorophenyl)-7-({[5-(3,5-dimethylisoxazol-4-yl)-1,2,4-oxadiazol-3-yl]methyl}oxy)-6-(methyloxy)quinazolin-4-amine]"
1000 to 20000 nM,< 50 nM,1000 to 20000 nM,"COc1cc2c(Nc3ccc(Cl)c(Cl)c3)ncnc2cc1OCc1csc2ccc(Cl)cc12 [Example 225, 7-{[(5-chloro-1-benzothien-3-yl)methyl]oxy}-N-(3,4-dichlorophenyl)-6-(methyloxy)quinazolin-4-amine]"
< 50 nM,< 50 nM,50 to 1000 nM,"COc1cc2c(Nc3ccc(Cl)c(Cl)c3)ncnc2cc1OCc1noc(-c2ccccc2OC)n1 [Example 227, N-(3,4-dichlorophenyl)-6-(methyloxy)-7-[({5-[2-(methyloxy)phenyl]-1,2,4-oxadiazol-3-yl}methyl)oxy]quinazolin-4-amine]"
< 50 nM,< 50 nM,50 to 1000 nM,"COc1cc2c(Nc3ccc(Cl)c(Cl)c3)ncnc2cc1OCc1nnc(-c2ccc(C)cc2)o1 [Example 228, N-(3,4-dichlorophenyl)-6-(methyloxy)-7-({[5-(4-methylphenyl)-1,3,4-oxadiazol-2-yl]methyl}oxy)quinazolin-4-amine]"
50 to 1000 nM,< 50 nM,1000 to 20000 nM,"COc1cc2c(Nc3ccc(Cl)c(Cl)c3)ncnc2cc1OCc1nccn1Cc1ccccc1 [Example 229, N-(3,4-dichlorophenyl)-6-(methyloxy)-7-({[1-(phenylmethyl)-lH-imidazol-2-yl]methyl}oxy)quinazolin-4-amine]"
< 50 nM,< 50 nM,50 to 1000 nM,"COc1cc2c(Nc3ccc(Cl)c(Cl)c3)ncnc2cc1OCc1csc(N(C)C)n1 [Example 240, N-(3,4-dichlorophenyl)-7-({[2-(dimethylamino)-1,3-thiazol-4-yl]methyl}oxy)-6-(methyloxy)quinazolin-4-amine]"
